The source of these data is ChEMBL document CHEMBL3399980, “Synthesis and biological evaluation of novel selective androgen receptor modulators (SARMs). Part I” (Bioorg Med Chem, 2015).

Some results are limits rather than exact numbers.

In general, IC50 refers to the concentration at which inhibition is half-maximal. A lower IC50 goes with higher potency. The term EC50 denotes the concentration at which the effect is half-maximal.

Data set [1] addresses T1, Androgen receptor (Homo sapiens, UniProt P10275).
T1 sequence (P10275 whole entry): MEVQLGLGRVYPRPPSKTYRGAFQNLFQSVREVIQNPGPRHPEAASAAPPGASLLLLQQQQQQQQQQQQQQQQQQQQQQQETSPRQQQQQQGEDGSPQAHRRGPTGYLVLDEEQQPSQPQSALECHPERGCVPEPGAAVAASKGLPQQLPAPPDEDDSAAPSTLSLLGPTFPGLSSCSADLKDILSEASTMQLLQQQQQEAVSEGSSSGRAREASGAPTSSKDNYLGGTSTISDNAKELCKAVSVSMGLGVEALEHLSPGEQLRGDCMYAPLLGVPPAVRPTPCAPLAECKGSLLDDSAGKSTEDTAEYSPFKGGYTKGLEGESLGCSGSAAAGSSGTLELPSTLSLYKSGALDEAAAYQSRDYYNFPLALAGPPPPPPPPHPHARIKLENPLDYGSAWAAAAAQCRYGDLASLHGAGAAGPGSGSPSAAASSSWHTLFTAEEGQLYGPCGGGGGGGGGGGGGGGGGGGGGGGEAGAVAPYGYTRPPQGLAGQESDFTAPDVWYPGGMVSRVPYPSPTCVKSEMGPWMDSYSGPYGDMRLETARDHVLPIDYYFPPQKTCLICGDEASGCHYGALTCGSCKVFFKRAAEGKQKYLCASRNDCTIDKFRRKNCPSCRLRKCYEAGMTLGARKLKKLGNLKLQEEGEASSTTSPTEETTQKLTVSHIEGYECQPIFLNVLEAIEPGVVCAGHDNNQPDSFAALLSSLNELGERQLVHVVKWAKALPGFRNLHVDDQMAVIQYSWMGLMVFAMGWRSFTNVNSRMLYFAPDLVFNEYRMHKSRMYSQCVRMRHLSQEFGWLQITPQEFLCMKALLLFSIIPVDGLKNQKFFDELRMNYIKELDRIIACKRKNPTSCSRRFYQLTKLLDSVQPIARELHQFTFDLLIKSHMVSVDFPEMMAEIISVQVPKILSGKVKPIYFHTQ
In words: Displacement of [3H]mibolerone from androgen receptor (unknown origin) after 3 hrs. A general note: Displacement assays read how much labelled ligand stays bound in the presence of the test substance.

Data set [2] addresses T1, Androgen receptor. Nature of the data set: Modulation of androgen receptor (unknown origin) expressed in Cos7 cells assessed as luciferase activity after 24 hrs. The class given is cell-based, COS-7.
Data set [3] has as its system Rattus norvegicus. Nature of the data set: Toxicity in male CD(SD)IGS rat assessed as effect on prostate weight at 1.5 mg/kg, po bid for 4 days by Hershberger assay. The class given is organism-based, Prostate gland. Set-up: dose 1.5 mg/kg, route oral. Particulars: in vivo, 96 h; call rule not given here.
Data set [4] relates to Rattus norvegicus. Nature of the data set: Induction of levator ani muscle weight in male CD(SD)IGS rat at 1.5 mg/kg, po bid for 4 days by Hershberger assay. In kind it is functional.
Data set [5] has as its system Rattus norvegicus. Nature of the data set: Induction of sexual behavior in castrated male CD(SD)IGS rat assessed as pseudopregnancy rate in female rat at 1.5 mg/kg, po bid measured on day 21 after first treatment (reference value: 0%). In kind it is functional.
Data set [6] relates to Rattus norvegicus. In words: Induction of sexual behavior in castrated male CD(SD)IGS rat assessed as pseudopregnancy rate in female rat at 5 mg/kg, po bid measured on day 21 after first treatment (reference value: 0%). The class given is functional.
Data set [7] has as its system Rattus norvegicus. In words: Induction of sexual behavior in castrated male CD(SD)IGS rat assessed as pseudopregnancy rate in female rat at 0.5 mg/kg, po bid measured on day 21 after first treatment (reference value: 0%). The class given is functional.
Data set [8] deals with Rattus norvegicus. Nature of the data set: Toxicity in male CD(SD)IGS rat assessed as effect on seminal vesicle weight at 1.5 mg/kg, po bid for 4 days by Hershberger assay. The class given is organism-based. Set-up: dose 1.5 mg/kg, route oral. The conditions noted are these: in vivo, 96 h.
In the next data set the test system is Brain. In words: Drug uptake in male Sprague-Dawley rat brain at 5 mg/kg, po. Set-up: dose 5 mg/kg, route oral. The conditions noted are these: in vivo. The class given is ADME, organism-based.
The subject of the next data set is Plasma. Nature of the data set: Drug uptake in male Sprague-Dawley rat plasma at 5 mg/kg, po. The class given is ADME, organism-based. Details: dose 5 mg/kg, route oral. Particulars: in vivo.
For the next data set, the system named is Prostate gland. Nature of the data set: Drug uptake in male Sprague-Dawley rat prostate at 5 mg/kg, po. In kind it is ADME, organism-based. Details: dose 5 mg/kg, route oral. Particulars: in vivo.
Data set [9] has as its system Rattus norvegicus. In words: Induction of sexual behavior in castrated male CD(SD)IGS rat assessed as pseudopregnancy rate in female rat at 2.5 mg/kg, po bid measured on day 21 after first treatment (reference value: 0%). In kind it is functional.
The nature of data set [10]: Drug uptake in male Sprague-Dawley rat levator ani muscle at 5 mg/kg, po. In kind it is ADME, organism-based. Details: dose 5 mg/kg, route oral. Particulars: in vivo.
The subject of data set [11] is Rattus norvegicus. Nature of the data set: Induction of sexual behavior in castrated male CD(SD)IGS rat assessed as pseudopregnancy rate in female rat at 3.5 mg/kg, po bid measured on day 21 after first treatment (reference value: 0%). In kind it is functional.

`O=C(O)c1ccc(N2CCCC2)c2ccccc12`: the IC50 on Androgen receptor [1] was above 10000 nM.

On to `C[C@H]1CCCN1c1ccc(C#N)c2ccccc12`, for which the IC50 at Androgen receptor [1] worked out at 0.84 nM. The EC50 at Androgen receptor [2] was 0.19 nM.

At Androgen receptor [1], `C[C@@H]1CCCN1c1ccc(C#N)c2ccccc12` yielded a half-maximal inhibitory concentration (IC50) of 20 nM. Also, the EC50 at Androgen receptor [2] was above 1000 nM.

For the compound `CC1(C)CCCN1c1ccc(C#N)c2ccccc12`, the IC50 on Androgen receptor [1] was found to be 7 nM. Besides, the EC50 on Androgen receptor [2] was determined as 21 nM.

At Androgen receptor [1], `CC[C@H]1CCCN1c1ccc(C#N)c2ccccc12` returned an IC50 of 1.1 nM. Besides, the EC50 at Androgen receptor [2] came to 0.24 nM.

As to `CC(C)[C@H]1CCCN1c1ccc(C#N)c2ccccc12`, the IC50 on Androgen receptor [1] stood at 1.4 nM. The EC50 at Androgen receptor [2] came out at 2 nM.

Compound `N#Cc1ccc(N2CCC[C@@H]2C(N)=O)c2ccccc12` gave an IC50 on Androgen receptor [1] of 34 nM. Further, on Androgen receptor [2], the concentration for a half-maximal effect (EC50) is 21 nM.

Turning to `N#Cc1ccc(N2CCC[C@@H]2C#N)c2ccccc12`, at Androgen receptor [1], the 50% inhibitory concentration (IC50) was found to be 1 nM. For the same compound, at Androgen receptor [2], the EC50 was determined as 160 nM.

With `C[C@H]1[C@@H](O)CCN1c1ccc(C#N)c2ccccc12`, the Activity entry with Rattus norvegicus [3] is “Non-toxic”; with Rattus norvegicus [4], 150%; in the data set with Rattus norvegicus [5] it was 70%; with Rattus norvegicus [6], 80%; with Rattus norvegicus [7] it was 44%; in the data set with Rattus norvegicus [8], “Non-toxic”. The compound also yielded an IC50 at Androgen receptor [1] of 2.2 nM. In addition, at Androgen receptor [2], the EC50 is 0.25 nM.

With `C[C@H]1[C@H](O)CCN1c1ccc(C#N)c2ccccc12`, the Activity entry with Rattus norvegicus [3] was “Non-toxic”; in the data set with Rattus norvegicus [4], 150%; with Rattus norvegicus [5] it was 67%; in the data set on Rattus norvegicus [6], 67%; with Rattus norvegicus [7] it was 38%; in the data set with Rattus norvegicus [8] it was “Non-toxic”. This compound also registered an IC50 at Androgen receptor [1] of 2.4 nM. Further, the EC50 on Androgen receptor [2] worked out at 0.32 nM.

`C[C@H]1C(=O)CCN1c1ccc(C#N)c2ccccc12`: the IC50 at Androgen receptor [1] was 37 nM. The EC50 on Androgen receptor [2] is 2.2 nM.

The compound `C[C@H]1[C@@H](CO)CCN1c1ccc(C#N)c2ccccc12` showed an IC50 at Androgen receptor [1] of 4.1 nM. Also, the concentration giving a half-maximal response (EC50) on Androgen receptor [2] was determined as 1.2 nM.

For the compound `C[C@H]1[C@@H](C(C)(C)O)CCN1c1ccc(C#N)c2ccccc12`, the Drug uptake result (with Brain; with Plasma; in the data set with Prostate gland; in [10]) was “Active” in each case. Moreover, the Activity result in the data set with Rattus norvegicus [3] was “Non-toxic”; in the data set with Rattus norvegicus [9], 57%; in the data set with Rattus norvegicus [6], 50%; in the data set on Rattus norvegicus [8], “Non-toxic”; in the data set with Rattus norvegicus [11] it was 57%. Besides, the IC50 at Androgen receptor [1] was 1.4 nM. In addition, the EC50 at Androgen receptor [2] worked out at 45 nM.

As to `COC(=O)[C@H]1CCN(c2ccc(C#N)c3ccccc23)[C@H]1C`, the IC50 at Androgen receptor [1] worked out at 7.5 nM. Further, at Androgen receptor [2], the EC50 was above 1000 nM.

Compound `O=[N+]([O-])c1ccc(N2CCCC2)c2ccccc12` gave an IC50 on Androgen receptor [1] of 2.5 nM. In addition, the EC50 on Androgen receptor [2] came out at 41 nM.

For the compound `N#Cc1ccc(N2CCCC2)c2ccccc12`, the IC50 at Androgen receptor [1] is 2.5 nM. The EC50 on Androgen receptor [2] worked out at 2.5 nM.
